Two compounds from US9056176B2, “1-phenyl-2-pyridinyl alkyl alcohol compounds as phosphodiesterase inhibitors” (CHIESI FARMACEUTICI S.P.A., priority 2009, dated 2015) can be followed below.

Test [1] has as its system OA-induced contraction in guinea-pig trachea. In words: OA-induced contraction of tracheal preparations from OA-sensitised guinea pigs (organ bath). As to conditions: 30-minute pre-treatment. As for the experimental part:
Zig-zag tracheal segments are obtained from male Ovoalbumin (OA)-sensitised guinea pigs and two preparations are obtained from a trachea. Each preparation is placed in 20-ml organ bath filled with oxygenated (O2 95% and CO2 5%) normal Krebs-Henseleit solution and maintained at 37° C. Tracheal preparations are connected to isometric force transducers under a resting tone of 1 g. After an equilibration period of 60 minutes, tracheal preparations are pretreated for 30 minutes with C1 (10^-7 M), Carmoterol (3*10^-10 M), the association C1 and Carmoterol or vehicle, respectively, followed by cumulative administration of OA (10^−10-10^−5 g/ml). At the end of the OA administration a maximal concentration of carbachol (10^−5 M) is added to obtain the maximal contraction of each preparation. The effects are expressed as percent values of the carbachol-induced maximal response (100%).

In test [2] the test system is LPS-induced TNF-α release in human PBMCs (PDE4 inhibitory activity). In words: LPS-induced TNF-α release in peripheral blood mononuclear cells (PBMCs) assay. In kind it is cell-based. To be noted: PBMC, LPS 3 ng/ml, 18 hours, TNF-α by ELISA, mean ± 95% confidence limits, read-out: molar concentration producing 50% inhibition of LPS-induced TNF-α release (IC50). As for the experimental part: The assay, which is based on the known inhibitory activity exerted by PDE4 inhibitors on the lipopolyshaccarides (LPS)-induced tumour necrosis factor-alpha (TNF-α release in peripheral blood mononuclear cells (PBMCs), is performed according to a method previously described (Hatzelmann A et al., J. Pharmacol. Exp. Ther., 2001; 297:267-279; and Draheim R et al., J. Pharmacol. Exp. Ther., 2004; 308:555-563, both of which are incorporated herein by reference in their entireties.
Cryopreserved human PBMCs, (100 μl/well) are incubated in 96-well plates (10^5 cells/well), for 30 minutes, in the presence or absence (50 microl) of the test compounds whose concentrations range from 10^−12 M to 10^−6 M. Subsequently, LPS (3 ng/ml) is added.
After 18 hours incubation at 37° C. in a humidified incubator under an atmosphere of 95% air and 5% CO2, culture medium is collected and TNF-α is measured by ELISA.
The effects of the tested compounds are calculated as percentage of inhibition of TNF-α release, assuming LPS-induced TNF-α production in the absence of inhibitor compound as 100% and basal TNF-α production of PBMCs in the absence of LPS as 0%.

Consider `COc1ccc(C[C@@H](C)NC[C@H](O)c2ccc(O)c3[nH]c(=O)ccc23)cc1` [Carmoterol, carmoterol, reference compound], for which, in test [1] (Carmoterol 3*10^-10 M), the “inhibition of the OA-induced contraction” value was found to be 18%. Turning to `CS(=O)(=O)Nc1ccc(C(=O)OC(Cc2c(Cl)cncc2Cl)c2ccc(OC(F)F)c(OCC3CC3)c2)cc1OCC1CC1` (single isomer, unassigned; (-)) [Compound C1, (−)-3-Cyclopropylmethoxy-4-methanesulfonylamino-benzoic acid 1-(3-cyclopropylmethoxy-4-difluoromethoxy-phenyl)-2-(3,5-dichloro-pyridin-4-yl)-ethyl ester], the IC50 in test [2] fell in the range of 0.06 to 4.4 nM. Moreover, the inhibition at 0.1 µM in test [1] (Cavia porcellus, C1 10^−7 M) is 23%.
